Assay results as given in patent US4001223A, “Adamantane-piperazine derivatives” (Idemitsu Kosan Co., Ltd., priority 1975, dated 1977).
“Also recorded” adds a separate entry of the source.

Columns and labels:
[1] = Stability in aqueous solution of tartaric acid; type: physicochemical
Procedure: After heating a 0.25 weight percent aqueous solution of the new compound N-(1-adamantyl methyl)-N'-cinnamyl piperazine prepared by using 2 times mol of tartaric acid based on 1 mol of this compound, the solution was allowed to cool to a room temperature (about 20° C). Then, the pH value was adjusted to 8-9 with 1/10 N aqueous solution of sodium hydroxide.

[2] = Effect on muscular blood flow in cats; type: in vivo; conditions: cats weighing about 3 kg
Excerpt: (§1) The action on cerebral blood flow and muscular blood flow was examined with cats weighing about 3 kg.

in vivo = conditions: for LD50: mouse, in vivo
[3] = system: Small intestine excised from guinea-pigs; assay: Inhibition of BaCl2-induced contraction of isolated smooth muscle (small intestine excised from guinea-pigs); conditions: contracting substance BaCl2 2.00×10^-3 g/ml; effective concentration 1×10^-4 g/ml
[4] = Effect on cerebral blood flow in cats; type: in vivo; conditions: cats weighing about 3 kg
Excerpt: as §1

[5] = system: Small intestine excised from guinea-pigs; assay: Inhibition of histamine-induced contraction of isolated smooth muscle (small intestine excised from guinea-pigs); conditions: contracting substance Histamine 1.00×10^-7 g/ml; effective concentration 1×10^-4 g/ml
isolated smooth muscle = assay: Effect on contraction of isolated smooth muscle, overall; set-up: species or system guinea-pigs
[6] = system: Vessels excised from guinea-pigs; assay: Inhibition of adrenalin-induced contraction of isolated smooth muscle (vessels excised from guinea-pigs); conditions: contracting substance Adrenalin 2.86×10^-6 g/ml; effective concentration 1×10^-5 g/ml
[7] = Solubility in aqueous solution of tartaric acid (aptitude test as an injection); type: physicochemical; conditions: 0.25 weight percent
Procedure: For the purpose of examining the solubility of the new compound N-(1-adamantyl methyl)-N'-cinnamyl piperazine in an aqueous solution of tartaric acid, the aqueous solutions in which 2, 4, 6 and 8 times molar of tartaric acid based on 1 mol of the new compound were contained were prepared and the compound was added so that its concentration should be 0.25 weight percent to each aqueous solution. Each aqueous solution was heated to 80° C and allowed to cool to a room temperature (about 20° C), then the solubility was evaluated. […] In addition, the pH value of 0.25 weight percent aqueous solution of the compound prepared by using 2 times mol of tartaric acid based on 1 molar of the compound was 3.10 and when an alkali was added to the aqueous solution, crystals began to separate at pH 3.80.

[8] = system: Small intestine excised from guinea-pigs; assay: Inhibition of acetylcholine-induced contraction of isolated smooth muscle (small intestine excised from guinea-pigs); conditions: contracting substance Acethylcholine 5.43×10^-4 g/ml; effective concentration 8.75×10^-6 g/ml
Hypotensive action = type: in vivo; conditions: for dose showing hypotensive action: in vivo
[9] = 0.25 weight percent, 2 times mol tartaric acid, heated, cooled, pH adjusted to 8-9, room temperature for 7 days

C(=C\c1ccccc1)/CN1CCN(CC23CC4CC(CC(C4)C2)C3)CC1 [N-(1-adamantylmethyl)-N'-cinnamyl piperazine]
change in infrared absorption spectrum and nuclear magnetic resonance spectrum [1, 9]: No change | stability by thin layer chromatography [1, 9]: unaffected | stability against heat, alkali and acid ([1]; general statement): good stability against heat, alkali and acid; also recorded: high stability against heat, alkali and acid | stability in an aqueous solution of tartaric acid ([1]; overall conclusion): exist stably in an aqueous solution of tartaric acid | blood flow of gastrocnemius muscle [2]: clearly increased blood flow of gastrocnemius muscle | action on blood flow of gastrocnemius muscle compared with Cinnarizine ([2]; versus Cinnarizine): more significant than that of Cinnarizine | toxicity (in vivo; general statement): low toxicity; also recorded: very low toxicity compared with conventional cerebral vasodilators | LD50 (in vivo; iv): 78.8 mg/kg | LD50 (in vivo; po): > 10000 mg/kg | Inhibitory rate [3]: 77.23% | blood flow of cerebral cortex ([4]; 1 mg/kg): clearly increased blood flow of cerebral cortex | action on blood flow of cerebral cortex compared with Cinnarizine ([4]; versus Cinnarizine 1 mg/kg): more significant than that induced by Cinnarizine | Inhibitory rate [5]: 95.0% | smooth muscle relaxing action (isolated smooth muscle): recognized to possess smooth muscle relaxing action | Inhibitory rate [6]: 3.10% | pH value of aqueous solution ([7]; 2 times mol of tartaric acid): 3.10 | pH at which crystals began to separate ([7]; 2 times mol of tartaric acid, alkali added): 3.80 | solubility ([7]; aqueous tartaric acid, 2, 4, 6 and 8 times molar, heated to 80° C, cooled to about 20° C): soluble in all of the above aqueous solutions of tartaric acid | Inhibitory rate [8]: 25.0% | side effects such as an excessive hypotension (Hypotensive action; general statement): little side effects such as an excessive hypotension | dose showing hypotensive action (Hypotensive action): > 5 mg/kg | hypotensive action compared with Cinnarizine (Hypotensive action; versus Cinnarizine): clearly weaker than that of Cinnarizine

C(=C\c1ccccc1)/CN1CCN(C(c2ccccc2)c2ccccc2)CC1 [Cinnarizine, reference compound]
dose showing hypotensive action (Hypotensive action): 0.5 mg/kg
